Source: patent US11034685B2, “Aminopyridine derivatives as TAM family kinase inhibitors” (SignalChem Lifesciences Corporation, priority 2013, dated 2021)

Key:
Assay type in all cases: biochemical
[1] = biological target: T1, Recombinant human Tyro3 (455-end) (Homo sapiens, UniProt Q06418); experiment: Kinase enzymatic activity assay ([33P]-ATP phosphate transfer), Tyro3; details: inhibitory activity on Tyro3; class symbols
T1 construct: GST (N); made in house; host or cells: Sf9 insect cells (baculovirus)
T1 sequence (Q06418 455-890 limits assumed): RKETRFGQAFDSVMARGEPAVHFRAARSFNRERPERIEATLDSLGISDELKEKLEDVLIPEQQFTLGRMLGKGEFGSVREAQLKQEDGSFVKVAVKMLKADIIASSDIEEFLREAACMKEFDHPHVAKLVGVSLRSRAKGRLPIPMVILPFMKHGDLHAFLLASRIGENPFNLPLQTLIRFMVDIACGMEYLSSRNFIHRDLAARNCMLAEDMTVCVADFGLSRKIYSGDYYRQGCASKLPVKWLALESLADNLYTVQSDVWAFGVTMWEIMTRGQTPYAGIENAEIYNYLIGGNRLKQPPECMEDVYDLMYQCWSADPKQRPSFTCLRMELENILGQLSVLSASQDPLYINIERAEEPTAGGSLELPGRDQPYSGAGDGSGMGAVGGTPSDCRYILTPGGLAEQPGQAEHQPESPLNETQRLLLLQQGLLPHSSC
Method in brief: (§1)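 Kinases were N-terminal GST-tagged constructs expressed in Sf9 cells, with poly(Glu:Tyr 4:1) as substrate. Reactions ran in MOPS buffer pH 7.2 with MgCl2 and [33P]-ATP (250 μM cocktail stock) for 30 min at room temperature. Filter-bound radioactivity gave % inhibition, and IC50 was taken from serial dilutions.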

[2] = biological target: T2, human Axl (473-end) (Homo sapiens, UniProt P30530); experiment: Kinase enzymatic activity assay ([33P]-ATP phosphate transfer), Axl; details: inhibitory activity on Axl; class symbols
T2 construct: GST (N); made in house; host or cells: Sf9 insect cells (baculovirus)
T2 sequence (P30530 473-894 limits assumed): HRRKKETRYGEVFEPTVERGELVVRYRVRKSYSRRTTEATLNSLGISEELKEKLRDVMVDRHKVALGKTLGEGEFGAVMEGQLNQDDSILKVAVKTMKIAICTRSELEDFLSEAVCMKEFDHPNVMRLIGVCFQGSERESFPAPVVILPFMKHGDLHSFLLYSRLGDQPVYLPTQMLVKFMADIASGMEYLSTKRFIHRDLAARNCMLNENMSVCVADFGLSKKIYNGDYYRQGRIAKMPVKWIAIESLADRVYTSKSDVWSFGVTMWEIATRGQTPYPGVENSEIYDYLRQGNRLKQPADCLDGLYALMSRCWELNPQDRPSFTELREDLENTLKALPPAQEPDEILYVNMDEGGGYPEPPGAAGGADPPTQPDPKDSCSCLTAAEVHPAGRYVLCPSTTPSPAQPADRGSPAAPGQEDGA
Method in brief: as §1

[3] = biological target: T3, human Mer (578-872) (Homo sapiens, UniProt Q12866); experiment: Kinase enzymatic activity assay ([33P]-ATP phosphate transfer), Mer; details: inhibitory activity on Mer; class symbols
T3 construct: GST (N); made in house; host or cells: Sf9 insect cells (baculovirus)
T3 sequence (Q12866 578-872): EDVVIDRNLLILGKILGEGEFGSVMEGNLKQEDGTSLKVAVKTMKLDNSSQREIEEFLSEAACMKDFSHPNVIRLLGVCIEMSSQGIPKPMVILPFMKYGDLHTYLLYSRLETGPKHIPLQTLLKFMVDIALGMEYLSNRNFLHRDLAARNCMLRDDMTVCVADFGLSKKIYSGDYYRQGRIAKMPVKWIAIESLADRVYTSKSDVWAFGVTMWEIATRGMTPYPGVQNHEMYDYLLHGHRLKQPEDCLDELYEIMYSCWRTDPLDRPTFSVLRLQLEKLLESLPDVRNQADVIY
Method in brief: as §1

| SMILES | IC50 [1] | IC50 [2] | IC50 [3] |
| --- | --- | --- | --- |
| Nc1ncc(-c2cn[nH]c2)cc1-c1nnc(-c2ccccc2)o1 [3-(5-phenyl-1,3,4-oxadiazol-2-yl)-5-(1H-pyrazol-4-yl)pyridin-2-amine] | < 0.5 µM | < 0.5 µM | 0.5 to 1 µM |
| Nc1ncc(-c2cnn(C3CCNCC3)c2)cc1-c1ccc(-c2ccccc2)o1 [3-(5-phenylfuran-2-yl)-5-(1-(piperidin-4-yl)-1H-pyrazol-4-yl)pyridin-2-amine] | < 0.5 µM | < 0.5 µM | 0.5 to 1 µM |
| Nc1ncc(-c2cnn(C3CCOCC3)c2)cc1-c1ccc(-c2ccccc2)o1 [3-(5-phenylfuran-2-yl)-5-(1-(tetrahydro-2H-pyran-4-yl)-1H-pyrazol-4-yl)pyridin-2-amine] | 1 to 10 µM | 1 to 10 µM | 1 to 10 µM |
| Nc1ncc(-c2cnn(C3CCNCC3)c2)cc1-c1cc(-c2ccccc2)on1 [3-(5-phenylisoxazol-3-yl)-5-(1-(piperidin-4-yl)-1H-pyrazol-4-yl)pyridin-2-amine] | < 0.5 µM | < 0.5 µM | < 0.5 µM |
| Nc1ncc(-c2cnn(C3CCOCC3)c2)cc1-c1cc(-c2ccccc2)on1 [3-(5-phenylisoxazol-3-yl)-5-(1-(tetrahydro-2H-pyran-4-yl)-1H-pyrazol-4-yl)pyridin-2-amine] | < 0.5 µM | < 0.5 µM | 1 to 10 µM |
| Nc1ncc(-c2cnn(C3CCNCC3)c2)cc1-c1ncc(-c2ccccc2)o1 [3-(5-phenyloxazol-2-yl)-5-(1-(piperidin-4-yl)-1H-pyrazol-4-yl)pyridin-2-amine] | < 0.5 µM | < 0.5 µM | < 0.5 µM |
| Nc1ncc(-c2cnn(C3CCOCC3)c2)cc1-c1ncc(-c2ccccc2)o1 [3-(5-phenyloxazol-2-yl)-5-(1-(tetrahydro-2H-pyran-4-yl)-1H-pyrazol-4-yl)pyridin-2-amine] | < 0.5 µM | < 0.5 µM | > 10 µM |
| CCN1CCC(n2cc(-c3cnc(N)c(-c4ncc(-c5ccccc5)o4)c3)cn2)CC1 [5-(1-(1-ethylpiperidin-4-yl)-1H-pyrazol-4-yl)-3-(5-phenyloxazol-2-yl)pyridin-2-amine] | < 0.5 µM | < 0.5 µM | < 0.5 µM |
| CN1CCC(n2cc(-c3cnc(N)c(-c4cc(-c5ccccc5)on4)c3)cn2)CC1 [5-(1-(1-methylpiperidin-4-yl)-1H-pyrazol-4-yl)-3-(5-phenylisoxazol-3-yl)pyridin-2-amine] | < 0.5 µM | < 0.5 µM | < 0.5 µM |
| Nc1ncc(-c2cnn(C3CCNCC3)c2)cc1-c1nnc(-c2nc(C(F)(F)F)cs2)o1 [5-(1-(piperidin-4-yl)-1H-pyrazol-4-yl)-3-(5-(4-(trifluoromethyl)thiazol-2-yl)-1,3,4-oxadiazol-2-yl)pyridin-2-amine] | < 0.5 µM | < 0.5 µM | < 0.5 µM |
| Nc1ncc(-c2cnn(C3CCNCC3)c2)cc1-c1nnc(-c2cnccn2)o1 [5-(1-(piperidin-4-yl)-1H-pyrazol-4-yl)-3-(5-(pyrazin-2-yl)-1,3,4-oxadiazol-2-yl)pyridin-2-amine] | < 0.5 µM | < 0.5 µM | 0.5 to 1 µM |
| Nc1ncc(-c2cnn(C3CCNCC3)c2)cc1-c1nnc(-c2ccccn2)o1 [5-(1-(piperidin-4-yl)-1H-pyrazol-4-yl)-3-(5-(pyridin-2-yl)-1,3,4-oxadiazol-2-yl)pyridin-2-amine] | < 0.5 µM | < 0.5 µM | < 0.5 µM |
| Nc1ncc(-c2cnn(C3CCNCC3)c2)cc1-c1nnc(-c2cccnc2)o1 [5-(1-(piperidin-4-yl)-1H-pyrazol-4-yl)-3-(5-(pyridin-3-yl)-1,3,4-oxadiazol-2-yl)pyridin-2-amine] | < 0.5 µM | < 0.5 µM | < 0.5 µM |
| Nc1ncc(-c2cnn(C3CCNCC3)c2)cc1-c1ncc(-c2cccnc2)o1 [5-(1-(piperidin-4-yl)-1H-pyrazol-4-yl)-3-(5-(pyridin-3-yl)oxazol-2-yl)pyridin-2-amine] | < 0.5 µM | < 0.5 µM | < 0.5 µM |
| Nc1ncc(-c2cnn(C3CCNCC3)c2)cc1-c1nnc(-c2nccs2)o1 [5-(1-(piperidin-4-yl)-1H-pyrazol-4-yl)-3-(5-(thiazol-2-yl)-1,3,4-oxadiazol-2-yl)pyridin-2-amine] | < 0.5 µM | < 0.5 µM | < 0.5 µM |
| Nc1ncc(-c2cnn(C3CCCCC3)c2)cc1-c1nnc(-c2c(Cl)cccc2Cl)o1 [5-(1-cyclohexyl-1H-pyrazol-4-yl)-3-(5-(2,6-dichlorophenyl)-1,3,4-oxadiazol-2-yl)pyridin-2-amine] | > 10 µM | > 10 µM | > 10 µM |

Second part, the compound after the results:

| IC50 [1] | IC50 [2] | IC50 [3] | SMILES |
| --- | --- | --- | --- |
| < 0.5 µM | < 0.5 µM | < 0.5 µM | Nc1ncc(-c2cnn(C3CCNCC3)c2)cc1-c1nnc(-c2ccccc2)o1 [3-(5-phenyl-1,3,4-oxadiazol-2-yl)-5-(1-(piperidin-4-yl)-1H-pyrazol-4-yl)pyridin-2-amine] |
| < 0.5 µM | < 0.5 µM | < 0.5 µM | Nc1ncc(-c2cnn(C3CCOCC3)c2)cc1-c1nnc(-c2ccccc2)o1 [3-(5-phenyl-1,3,4-oxadiazol-2-yl)-5-(1-(tetrahydro-2H-pyran-4-yl)-1H-pyrazol-4-yl)pyridin-2-amine] |
| < 0.5 µM | < 0.5 µM | < 0.5 µM | CCN1CCC(n2cc(-c3cnc(N)c(-c4nc(-c5ccccc5)no4)c3)cn2)CC1 [5-(1-(1-ethylpiperidin-4-yl)-1H-pyrazol-4-yl)-3-(3-phenyl-1,2,4-oxadiazol-5-yl)pyridin-2-amine] |
| < 0.5 µM | < 0.5 µM | < 0.5 µM | CN1CCC(n2cc(-c3cnc(N)c(-c4nc(-c5ccccc5)no4)c3)cn2)CC1 [5-(1-(1-methylpiperidin-4-yl)-1H-pyrazol-4-yl)-3-(3-phenyl-1,2,4-oxadiazol-5-yl)pyridin-2-amine] |
| < 0.5 µM | < 0.5 µM | 0.5 to 1 µM | CN1CCC(n2cc(-c3cnc(N)c(-c4noc(-c5ccccc5)n4)c3)cn2)CC1 [5-(1-(1-methylpiperidin-4-yl)-1H-pyrazol-4-yl)-3-(5-phenyl-1,2,4-oxadiazol-3-yl)pyridin-2-amine] |
| < 0.5 µM | 1 to 10 µM | 1 to 10 µM | Nc1ncc(-c2cnn(C3CCCCC3)c2)cc1-c1nc(-c2c(Cl)cccc2Cl)no1 [5-(1-cyclohexyl-1H-pyrazol-4-yl)-3-(3-(2,6-dichlorophenyl)-1,2,4-oxadiazol-5-yl)pyridin-2-amine] |
| 1 to 10 µM | 1 to 10 µM | > 10 µM | Nc1ncc(-c2cnn(C3CCCCC3)c2)cc1-c1nc(-c2ccccc2)no1 [5-(1-cyclohexyl-1H-pyrazol-4-yl)-3-(3-phenyl-1,2,4-oxadiazol-5-yl)pyridin-2-amine] |
| > 10 µM | > 10 µM | > 10 µM | Nc1ncc(-c2cnn(C3CCCCC3)c2)cc1-c1noc(-c2ccccc2)n1 [5-(1-cyclohexyl-1H-pyrazol-4-yl)-3-(5-phenyl-1,2,4-oxadiazol-3-yl)pyridin-2-amine] |
| 1 to 10 µM | 1 to 10 µM | > 10 µM | Nc1ncc(-c2cnn(C3CCCCC3)c2)cc1-c1nnc(-c2ccccc2)o1 [5-(1-cyclohexyl-1H-pyrazol-4-yl)-3-(5-phenyl-1,3,4-oxadiazol-2-yl)pyridin-2-amine] |
| 1 to 10 µM | 1 to 10 µM | 1 to 10 µM | Nc1ncc(-c2cnn(C3CCCCC3)c2)cc1-c1ccc(-c2ccccc2)o1 [5-(1-cyclohexyl-1H-pyrazol-4-yl)-3-(5-phenylfuran-2-yl)pyridin-2-amine] |
| 1 to 10 µM | 1 to 10 µM | 1 to 10 µM | Nc1ncc(-c2cnn(C3CCCCC3)c2)cc1-c1cc(-c2ccccc2)on1 [5-(1-cyclohexyl-1H-pyrazol-4-yl)-3-(5-phenylisoxazol-3-yl)pyridin-2-amine] |
| 1 to 10 µM | 1 to 10 µM | > 10 µM | Nc1ncc(-c2cnn(C3CCCCC3)c2)cc1-c1ncc(-c2ccccc2)o1 [5-(1-cyclohexyl-1H-pyrazol-4-yl)-3-(5-phenyloxazol-2-yl)pyridin-2-amine] |
